Measured values from patent publication US8969409B2, “Treatment for pulmonary hypertension” (United Therapeutics Corporation, priority 2010, dated 2015).

Legend:
[1] = system: pulmonary artery pressure (PAP); assay: Rat model of acute PAH: U-44069 infusion, pulmonary artery pressure by telemetry; assay type: in vivo
Procedure: This study utilized administration of a thromboxane agonist to elevate pulmonary artery pressure (PAP) in the rat as a model for PAH. Treprostinil was administered to the rats by oral gavage (UT-15C), nose-only inhalation (Tyvaso) or in a combined oral+inhalation regimen, followed by PAP assessment.
Experimental Design: For this study, a rat model of acute PAH was developed with the ability to measure real-time PAP by telemetry from a catheter surgically implanted into the rat pulmonary artery. To induce PAH in this model, a 15 minute intravenous (IV) infusion of the thromboxane agoinst, U44069, was administered, and PAP was monitored and recorded every 5 seconds.
To establish this model, initial testing and optimization of the concentration and infusion rate of the U-44069 was performed to best achieve elevated PAP. […] Following the preliminary individual oral and inhaled treprostinil range-finding studies, a combination administration of oral+inhaled treprostinil was performed.
The animals received U-44069 (0.5 mg/mL) at a dose rate of 10 mL/kg/hr for 15 minutes for a total dose of 1.25 mg/kg/dose. The animals received 3 to 4 IV doses/session, as detailed below.
• 1. Animals were treated as follows: • 2. IV for 15 minutes • 3. Oral gavage, as soon as practicable following the 15-minute infusion • 4. 1 hour following gavage, IV for 15 minutes. • 5. 2 hours following gavage, IV for 15 minutes Dose 2, inhalation:
Animals were treated as follows: • 1. IV for 15 minutes • 2. Inhalation exposure, as soon as practicable following the 15-minute infusion • 3. Approximately 5 minutes after inhalation completion, IV for 15 minutes. • 4. 1 hour later, IV for 15 minutes Dose 3, inhalation and oral gavage:
Animals were treated as follows: • 1. IV for 15 minutes • 2. Oral gavage, as soon as practicable following the 15-minute infusion • 3. Inhalation exposure, as soon as practicable following oral gavage. All animals were exposed to the low dose (5.26 μg/kg). • 4. Approximately 5 minutes after inhalation completion, IV for 15 minutes. • 5. 1 hour later, IV for 15 minutes • 6. 2 hours after oral gavage, IV for 15 minutes for 2 animals (1 low and 1 high oral dose) Inhaled, Oral and Combination Treprostinil Dosing Results: […]

[2] = low pH (stomach); cited from earlier work
[3] = cited from earlier work

CCCCC[C@H](O)/C=C/[C@H]1[C@@H]2CO[C@@H](C2)[C@@H]1C/C=C\CCCC(=O)O [U-44069]
maximum PAP during U-44069 infusion relative to baseline ([1]; IV U-44069 0.5 mg/mL, 10 mL/kg/hr for 15 minutes, all occasions except animal 2001): at least 150 % of the baseline

CCCCC[C@H](O)/C=C/[C@@H]1[C@H]2C/C(=C/CCCC(=O)O)O[C@H]2C[C@H]1O [prostacyclin]
stability at low pH [2]: inactivated by a low pH
half-life in the blood [3]: 3 to 5 min

CCCCC[C@H](O)CC[C@@H]1[C@H]2Cc3cccc(OCC(=O)O)c3C[C@H]2C[C@H]1O [treprostinil]
PAP reduction when oral treprostinil added to low dose inhaled treprostinil ([1]; combination dosing regimen, in magnitude or duration): additional PAP reduction was observed
PAP following inhalation exposure (immediately post dosing) ([1]; inhalation 5.26, 10.6 or 34.1 μg/kg/day, all dose levels, during U-44069 infusion): approximately 120 % the baseline
PAP at 1 hr post dosing compared to IPD values ([1]; inhalation 5.26, 10.6 or 34.1 μg/kg/day, additional U-44069 injection 1 hour after inhalation): significantly increased
PAP reduction at IPD, combination dosing Group 3 ([1]; low dose inhaled (5.26 μg/kg/day) + high oral gavage, versus individual high dose inhalation (34.1 μg/kg/day), sustained to 1 hr PD): equivalent (#3001) or greater (#3002)
PAP reduction, combination dosing Group 1 ([1]; low dose inhaled (5.26 μg/kg/day) + low (5 mg/kg/dose) oral gavage, versus low dose inhaled alone): sustained effect to 1 hr
PAP decrease at IPD, combination dosing Group 2 ([1]; low dose inhaled (5.26 μg/kg/day) + mid (10 mg/kg/dose) oral gavage, versus individual mid-dose inhalation (10.6 μg/kg/day)): equivalent or greater
PAP after oral gavage ([1]; oral gavage 5, 10 or 15 mg/kg/dose, 1 hr PD and 2 hr PD): decreases in PAP were generally observed in a dose-related fashion
PAP during the PAH condition, any route of administration ([1]; oral gavage, nose-only inhalation or combined): generally reduce PAP
